How the values were obtained:
[1] = tested on: Influenza A virus; assay: Antiviral activity against Influenza A virus (A/Puerto Rico/8/34(H1N1)) harboring M2 channel S31N and V27T mutant infected in MDCK cells assessed as reduction of cytopathic effect after 72 hrs by MTS assay; format: functional, organism-based, A/Puerto Rico/8/1934(H1N1)
[2] = tested on: Influenza B virus; assay: Antiviral activity against Influenza B virus (B/Hong Kong/05/1972) harboring wild type M2 channel infected in MDCK cells assessed as reduction of cytopathic effect after 72 hrs by MTS assay; format: functional, cell-based; details: B/Hong Kong/05/1972, MDCK
[3] = tested on: H3N2 subtype; assay: Antiviral activity against Influenza A virus (A/Hong Kong/7/1987(H3N2)) harboring wild type M2 channel infected in MDCK cells assessed as reduction of cytopathic effect after 72 hrs by MTS assay; format: functional, organism-based
[4] = tested on: Influenza A virus; assay: Antiviral activity against Influenza A virus (A/Puerto Rico/8/34(H1N1)) harboring M2 channel S31N and V27T mutant infected in MDCK cells assessed as reduction of cytopathic effect after 72 hrs by microsocopic analysis; format: functional, organism-based, A/Puerto Rico/8/1934(H1N1)
[5] = tested on: Influenza B virus; assay: Antiviral activity against Influenza B virus (B/Hong Kong/05/1972) harboring wild type M2 channel infected in MDCK cells assessed as reduction of cytopathic effect after 72 hrs by microsocopic analysis; format: functional, cell-based; details: B/Hong Kong/05/1972, MDCK
[6] = tested on: H3N2 subtype; assay: Antiviral activity against Influenza A virus (A/Hong Kong/7/1987(H3N2)) harboring wild type M2 channel infected in MDCK cells assessed as reduction of cytopathic effect after 72 hrs by microsocopic analysis; format: functional, organism-based
[7] = tested on: H3N2 subtype; assay: Antiviral activity against Influenza A virus (A/Hong Kong/7/1987(H3N2)) harboring wild type M2 channel infected in MDCK cells assessed as concentration required to 2 log10 reduction of virus yield after 24 hrs by RT-PCR analysis; format: functional

Row | SMILES | EC50 [1] [µM] | EC50 [2] [µM] | EC50 [3] [µM] | EC50 [4] [µM] | EC50 [5] [µM] | EC50 [6] [µM] | EC99 [7] [µM]
1 | N=C(N)N1CC23CC4CC2(CC4C3)C1 | > 50 | > 50 | > 50 | > 50 | > 50 | > 50 | 
2 | CN1CC23CC4CC2(CC4C3)C1 | > 100 | > 100 | > 100 | > 100 | > 100 | > 100 | 
3 | CC(N)C12CC3CC(CC(C3)C1)C2 (stereo not drawn) [RIMANTADINE] | 4.3 | > 500 | 0.12 | 18 | > 500 | 0.62 | >4
4 | CCC12CC34CNCC3(C1)CC2(CC)C4 | > 100 | > 100 | > 100 | > 100 | > 100 | > 100 | 
5 | C1NCC23CC4CC12CC4C3 | > 100 | > 100 | 7.2 | > 100 | > 100 | 7.9 | 
6 | CCC12CC34CN(C(=N)N)CC3(C1)CC2(CC)C4 | > 100 | > 100 | > 100 | > 100 | > 100 | > 100 | 
7 | CC12CC34CNCC3(C1)CC2(C)C4 | > 100 | > 100 | > 100 | > 100 | > 100 | 1.6 | 
8 | CN1CC23CC4(C)CC2(C1)CC4(C)C3 | > 100 | > 100 | > 100 | > 100 | > 100 | > 100 | 
9 | C1CCC23CC45CNCC4(CC2(C1)C5)C3 | > 100 | > 100 | > 100 | > 100 | > 100 | > 100 | 
10 | N=C(N)N1CC23CC45CCCCC4(C2)CC3(C1)C5 | > 100 | > 100 | > 100 | > 100 | > 100 | > 100 | 
11 | NC12CC3CC(CC(C3)C1)C2 [AMANTADINE] | 38 | > 500 | 0.82 | 34 | > 500 | 0.84 | 
12 | CC12CC34CN(C(=N)N)CC3(C1)CC2(C)C4 | > 100 | > 100 | > 100 | > 100 | > 100 | > 100 | 

Source: ChEMBL document CHEMBL3085678, “3-Azatetracyclo[5.2.1.1(5,8).0(1,5)]undecane derivatives: from wild-type inhibitors of the M2 ion channel of influenza A virus to derivatives with potent activity against the V27A mutant” (J Med Chem, 2013)
